Test results: ChEMBL document CHEMBL1153309, “Synthesis and biological evaluation of platensimycin analogs” (Bioorg Med Chem Lett, 2009)
In brackets after ≈: the same amount, converted by molar mass.

Columns and labels:
Staphylococcus aureus [1] = assay: Antimicrobial activity against wild type Staphylococcus aureus; type: functional
Staphylococcus aureus [2] = assay: Antibacterial activity against antisense fabH/fabF sensitized Staphylococcus aureus assessed as minimum concentration required to show differential zone of fabF antisense strain clearance by two plate differential sensitivity assay; type: functional
[3] = target: T1, 3-oxoacyl-[acyl-carrier-protein] synthase 2 (Staphylococcus aureus, UniProt Q5TKS0); assay: Inhibition of FabF-mediated type 2 fatty acid synthesis in Staphylococcus aureus by cell free assay
T1 sequence (Q5TKS0 whole entry): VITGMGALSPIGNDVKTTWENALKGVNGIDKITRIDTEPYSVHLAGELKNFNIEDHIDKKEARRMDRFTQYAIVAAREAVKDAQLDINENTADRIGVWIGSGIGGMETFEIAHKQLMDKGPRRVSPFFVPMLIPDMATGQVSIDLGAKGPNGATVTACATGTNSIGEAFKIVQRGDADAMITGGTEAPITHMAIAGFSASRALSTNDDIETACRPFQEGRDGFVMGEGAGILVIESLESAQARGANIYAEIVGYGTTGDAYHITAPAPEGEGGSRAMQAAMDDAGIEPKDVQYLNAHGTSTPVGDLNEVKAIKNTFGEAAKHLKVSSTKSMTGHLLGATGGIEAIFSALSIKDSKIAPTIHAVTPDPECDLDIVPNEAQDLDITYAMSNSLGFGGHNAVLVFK

Row | SMILES | MIC (Staphylococcus aureus [1]) | IC50 [3] | Activity (Staphylococcus aureus [2])
1 | CN1CC23CC4CC(OC4(C)C2)C3[C@](C)(CCC(=O)Nc2c(O)ccc(C(=O)O)c2O)C1=O (stereo not given in full) | > 64 µg/mL | > 436 µM | >2.7 µg/mL
2 | Cn1ncc2c1[C@@](C)(CCC(=O)Nc1c(O)ccc(C(=O)O)c1O)C1C3CC4CC1(C2)CC4(C)O3 (stereo not given in full) | > 64 µg/mL | 156 µM | >2.7 µg/mL
3 | CC12CC34COC(=O)[C@@](C)(CCC(=O)Nc5c(O)ccc(C(=O)O)c5O)C3C(CC1C4)O2 (stereo not given in full) | > 64 µg/mL | 165 µM | >2.7 µg/mL
4 | CC12CC34CCC(=O)[C@@](C)(CCC(=O)Nc5c(O)ccc(C(=O)O)c5O)C3C(CC1C4)O2 (stereo not given in full) [DIHYDROPLATENSIMYCIN] | 2 µg/mL (≈ 4.51 µM) | 4.51 µM | 0.4 µg/mL
5 | CC12C[C@@]34C=CC(=O)[C@@](C)(CCC(=O)Nc5c(O)ccc(C(=O)O)c5O)C3[C@H](CC1C4)O2 (stereo not given in full) [PLATENSIMYCIN] | 0.5 µg/mL (≈ 1.13 µM) | 1.13 µM | 0.01 µg/mL

The remaining compounds from weak to strong by MIC (Staphylococcus aureus [1]), led by results:

Row | MIC (Staphylococcus aureus [1]) | IC50 [3] | SMILES | Activity (Staphylococcus aureus [2])
6 | 16 µg/mL (≈ 34.2 µM) | 22.4 µM | CC12CC34Cc5cnoc5[C@@](C)(CCC(=O)Nc5c(O)ccc(C(=O)O)c5O)C3C(CC1C4)O2 (stereo not given in full) | 0.3 µg/mL
7 | 4 µg/mL (≈ 8.78 µM) | 5.27 µM | CC1=CC(=O)[C@@](C)(CCC(=O)Nc2c(O)ccc(C(=O)O)c2O)C2C3CC4CC12CC4(C)O3 (stereo not given in full) | 0.03 µg/mL
8 | 4 µg/mL (≈ 8.74 µM) | 28.4 µM | CC1CC(=O)[C@@](C)(CCC(=O)Nc2c(O)ccc(C(=O)O)c2O)C2C3CC4CC12CC4(C)O3 (stereo not given in full) | <20 µg/mL
9 | 4 µg/mL (≈ 7.7 µM) | 7.7 µM | CC12CC34CC1CC(O2)C3[C@](C)(CCC(=O)Nc1c(O)ccc(C(=O)O)c1O)C(=O)CC4c1ccccc1 (stereo not given in full) [PHENYL DIHYDROPLATENSIMYCIN] | <20 µg/mL
10 | 1 µg/mL (≈ 2.2 µM) | 20.9 µM | CC12CC34CC1CC(O2)C3[C@](C)(CCC(=O)Nc1c(O)ccc(C(=O)O)c1O)C(=O)[C@@H]1C[C@@H]14 (stereo not given in full) | 0.1 µg/mL
